Assay results: the supplement of paper PMC7394473

Legend:
Conditions in all cases: 72 h
U2OS [1] = assay: GR50 (concentration giving GR = 0.5)
Method: (§1)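 U2OS cells treated with full dose titrations of drug; live and dead cells counted by STACK microscopy (mKate2 nuclei, SYTOX Green) at 72 h, biological triplicates. GR and FV dose responses were fitted with 4-parameter logistic models (GR lower bound -1). GRADE (0-100) is the rescaled angle of a linear fit of FV versus GR at doses with GR >= 0, giving the percentage of the response due to cell death.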

U2OS [2] = assay: fractional viability (live cells / total cells); higher = less cell death
Method: (§2)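 U2OS::Nuc-mKate2 cells seeded in 96-well plates and treated with eight- to ten-point half-log or log dilutions of drug in the presence of 50 nM SYTOX Green. Live (mKate2+) and dead (SYTOX+) cells were counted by IncuCyte STACK live-cell microscopy at 72 h; biological triplicates. GR is the normalised growth-rate inhibition value (Hafner 2016; 1 = untreated growth, <0 = population shrinking). FV is live/(live+dead) cells, not normalised.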

U2OS [3] = assay: FV IC50 (concentration giving fractional viability 0.5); higher = less potent killing
Method: as §1

U2OS [4] = assay: drug GRADE (percent of response due to cell death) (% (0-100)); higher = more death-driven response
Method: as §1

U2OS [5] = assay: normalized growth rate inhibition value (GR) relative to untreated cells (GR value (dimensionless, 1 = untreated growth)); higher = less growth inhibition
Method: as §2

U2OS [6] = assay: GRmin (fitted minimal GR value at highest effect) (GR value (dimensionless)); higher = less efficacious
Method: as §1

SMILES	GR50 (U2OS [1])	fractional viability (U2OS [2]; 0.01 µM)	fractional viability (U2OS [2]; 0.0316 µM)	fractional viability (U2OS [2]; 0.1 µM)	fractional viability (U2OS [2]; 0.316 µM)	fractional viability (U2OS [2]; 1 µM)	fractional viability (U2OS [2]; 3.16 µM)	fractional viability (U2OS [2]; 10 µM)	fractional viability (U2OS [2]; 31.6 µM)	FV IC50 (U2OS [3])	drug GRADE (U2OS [4])	normalized growth rate inhibition value (U2OS [5]; 0.01 µM)	normalized growth rate inhibition value (U2OS [5]; 0.0316 µM)	normalized growth rate inhibition value (U2OS [5]; 0.1 µM)	normalized growth rate inhibition value (U2OS [5]; 0.316 µM)	normalized growth rate inhibition value (U2OS [5]; 1 µM)	normalized growth rate inhibition value (U2OS [5]; 3.16 µM)	normalized growth rate inhibition value (U2OS [5]; 10 µM)	normalized growth rate inhibition value (U2OS [5]; 31.6 µM)	fractional viability (U2OS [2]; 0.00316 µM)	GRmin (U2OS [6])	normalized growth rate inhibition value (U2OS [5]; 0.00316 µM)	fractional viability (U2OS [2]; 0.00100578 µM)	fractional viability (U2OS [2]; 0.00317827 µM)	fractional viability (U2OS [2]; 0.0100433 µM)	fractional viability (U2OS [2]; 0.0317369 µM)	fractional viability (U2OS [2]; 0.100289 µM)	fractional viability (U2OS [2]; 0.316912 µM)	fractional viability (U2OS [2]; 1.00144 µM)	fractional viability (U2OS [2]; 3.16456 µM)	normalized growth rate inhibition value (U2OS [5]; 0.00100578 µM)	normalized growth rate inhibition value (U2OS [5]; 0.00317827 µM)	normalized growth rate inhibition value (U2OS [5]; 0.0100433 µM)	normalized growth rate inhibition value (U2OS [5]; 0.0317369 µM)	normalized growth rate inhibition value (U2OS [5]; 0.100289 µM)	normalized growth rate inhibition value (U2OS [5]; 0.316912 µM)	normalized growth rate inhibition value (U2OS [5]; 1.00144 µM)	normalized growth rate inhibition value (U2OS [5]; 3.16456 µM)
CNc1ccc2oc(C[C@H]3O[C@@]4(CC[C@H]3C)O[C@H]([C@H](C)C(=O)c3ccc[nH]3)[C@H](C)C[C@H]4C)nc2c1C(=O)O	1.69 µM	0.982	0.983	0.976	0.97	0.959	0.848	0.418	0.0921	8.33 µM	23.9	1.02	1.01	0.913	0.846	0.612	0.31	-0.171	-0.602	–	–	–	–	–	–	–	–	–	–	–	–	–	–	–	–	–	–	–
Cc1ccc(C(=O)N(CCCN)[C@@H](c2oc3cc(Cl)ccc3c(=O)c2Cc2ccccc2)C(C)C)cc1	–	0.758	0.808	0.764	0.827	0.782	0.436	0.0037	0.000513	2.85 µM	53.2	-0.165	0.0886	-0.222	0.0837	-0.166	-0.182	-0.945	-0.883	0.855	-0.9	0.205	–	–	–	–	–	–	–	–	–	–	–	–	–	–	–	–
CN(C)CC[C@H](CSc1ccccc1)Nc1ccc(S(=O)(=O)NC(=O)c2ccc(N3CCN(Cc4ccccc4-c4ccc(Cl)cc4)CC3)cc2)cc1[N+](=O)[O-] [ABT-737]	2.13 µM	–	–	–	–	–	–	0.407	–	6.86 µM	65.6	–	–	–	–	–	–	-0.162	–	–	–	–	0.986	0.984	0.983	0.982	0.954	0.913	0.82	0.684	0.92	1.02	1.02	0.95	0.94	0.817	0.744	0.358
NC(=O)Nc1cc(-c2cccc(F)c2)sc1C(=O)N[C@H]1CCCNC1 [AZD7762]	0.11 µM	–	–	–	–	–	–	0.0629	–	0.51 µM	20	–	–	–	–	–	–	-0.718	–	–	-0.614	–	0.991	0.992	0.992	0.988	0.894	0.548	0.398	0.0972	1.04	1.04	1.19	1.12	0.423	-0.126	-0.318	-0.622
CCN1CCN(Cc2ccc(Nc3ncc(F)c(-c4cc(F)c5nc(C)n(C(C)C)c5c4)n3)nc2)CC1 [Abemaciclib]	0.299 µM	–	–	–	–	–	–	0.0044	–	3.61 µM	17.3	–	–	–	–	–	–	-0.928	–	–	–	–	0.99	0.992	0.993	0.992	0.986	0.986	0.82	0.615	1.03	0.796	0.854	0.834	0.613	0.583	-0.0282	-0.2
CC[C@@H]1C(=O)N(C)c2cnc(Nc3ccc(C(=O)NC4CCN(C)CC4)cc3OC)nc2N1C1CCCC1 [BI2536]	–	0.45	0.485	0.413	0.388	0.323	0.168	0.0141	0.00423	0.0275 µM	20.9	-0.371	-0.116	-0.354	-0.184	-0.415	-0.378	-0.876	-0.822	0.517	–	0.0188	–	–	–	–	–	–	–	–	–	–	–	–	–	–	–	–
O=C(NCCCNc1nc(Nc2cccc(NC(=O)N3CCCC3)c2)ncc1I)c1cccs1 [BX795]	1.46 µM	0.982	0.975	0.974	0.971	0.94	0.716	0.661	0.102	11.6 µM	34.3	0.987	1.11	0.954	1.01	0.723	-0.0493	-0.146	-0.574	–	-0.438	–	–	–	–	–	–	–	–	–	–	–	–	–	–	–	–	–
O=C(/C=C/c1cccc(S(=O)(=O)Nc2ccccc2)c1)NO [Belinostat]	0.332 µM	0.969	0.972	0.947	0.878	0.466	0.096	0.0497	0.0293	0.93 µM	63.3	0.939	0.975	0.836	0.498	-0.0168	-0.527	-0.646	-0.72	–	-0.733	–	–	–	–	–	–	–	–	–	–	–	–	–	–	–	–	–
